The text below walks through data of patent US20220362262A1, “METHODS AND COMPOSITIONS FOR TISSUE REGENERATION” (Institute of Zoology, Chinese Academy of Sciences, priority 2019, published 2022).

Each structure is given as a SMILES string. “Also recorded” adds a separate entry of the source.

Assay [1] concerns cryoinjured TA muscle. The assay is described as follows: PGI2 bolus in cryoinjured TA muscle: cAMP, PPARs, H3K9ac and myogenic markers. The class given is in vivo, mice.
Assay [2] deals with fibrosis in TA muscle, liver, skin and heart of 2-year old mice. Kind of assay: Aging-induced fibrosis and fibrotic precursors in 2-year old mice after daily injection. It counts as in vivo. To be noted: daily injection; for relative changes in the % fibrotic area (Masson trichrome staining) / relative changes in the percentage fraction of fibrotic precursors (PGDFRA-positive and Ki67-positive): 7 days post-injection, 2-year old mice. From the text: (§1) Some tissues were flash frozen for cryosectioning.

In assay [3] the test system is muscle stem cells and myoblasts in gastrocnemius, quadriceps and TA muscle. The assay is described as follows: Stem cell and myoblast activation in skeletal muscles without injury, immunofluorescence 2 days after single bolus. Particulars: TA muscle, 2 days after intramuscular single bolus. It counts as in vivo, mice.
Excerpt: as §1

Assay [4] relates to pure primary human myoblasts. The assay is described as follows: Pure primary human myoblasts treated with PGI2-related drugs (Western blot, qRT-PCR). It counts as cell-based. A general note: Immunoblotting shows a protein as a band on a membrane.
Assay [5] relates to cryoinjured TA muscle. The assay is described as follows: Muscle regeneration after cryoinjury: regenerative index, myogenic proteins, myofiber diameter, grip strength after bolus injection. The class given is in vivo, mice.
Excerpt: as §1

The subject of assay [6] is primary human myoblasts. The assay is described as follows: Proliferation of primary human myoblasts under PGI2 treatment. The class given is cell-based.
The subject of assay [7] is human myocytes. Kind of assay: Seahorse O2 consumption rates in differentiating myocytes. To be noted: etomoxir at early 0-12 h and 12-24 h time-windows only. It counts as cell-based. The method, then: HSKM progenitors were seeded onto Seahorse XF96 Cell Culture Microplate (Agilent), pre-coated with gelatin (0.1%, Merck-Millipore), in growth media at 10,000 cells per well. […] Before performing the Seahorse XF cell Mito Stress Test assay, cell culture media were replaced with assay media (Seahorse XF DMEM Medium, pH 7.4, 2 mM pyruvate, 2 mM glutamine) (Agilent) and incubated in a CO2-free incubator at 37° C. for 1 hour to equilibrate temperature and pH for each well. During the assay, Oligomycin (2 uM, Agilent), FCCP (0.5 uM, Agilent), and a mixture of Antimycin A and Rotenone (0.5 uM, Agilent), were injected sequentially and measurements were taken according to manufacturer's instructions. The data was analyzed using WAVE software.

The test system of assay [8] is primary human myoblasts / myocytes. The assay is described as follows: Etomoxir (CPT1 inhibitor) at different time-windows of myoblast differentiation: cell numbers, Western blot. It counts as cell-based.
[9] abbreviates: TA muscle 1-2 days post-cryoinjury.
The mark [10] stands for this setting: injured TA muscle, single bolus.
The mark [11] stands for this setting: differentiating myoblasts (24 h post-differentiation).
Setting [12] is: pure primary human myoblasts, relative to DMSO.

As for `CCCCC[C@H](O)/C=C/[C@@H]1[C@H]2C/C(=C/CCCC(=O)O)O[C@H]2C[C@H]1O` [PGI2, prostacyclin], in assay [1] (setting [9]), the “H3K9ac levels (Western blot)” value is “increased protein acetylation and especially histone acetylation”; the “PPARA protein (Western blot)” value was “suppresses the increase in PPARA; also recorded: suppressed PPARA protein”; the “PPARD protein (Western blot)” value is listed as “exerts little effect on PPARD”; the “PPARG protein (Western blot)” value is given as “accelerates the increase in PPARG; also recorded: increased PPARG protein”. Further, in assay [1] (TA muscle 1-2 days post-freeze injury), the “percentage fraction of PPARG-positive cells (immunofluorescence)” value is on record as “significantly increase PPARG-positive cells”. For the same compound, the “abundance of cyclic adenosine monophosphate (cAMP), MALDI-MSI” value in assay [1] (TA muscle 6 days after single bolus) is reported as “significantly decreased”. Further, in assay [1] (TA muscle over 6 days post-injury (days 2-4), single bolus at 0 h), the “committed myoblasts (MyoG-positive Ki67-positive cells, immunofluorescence)” value is “significantly increase committed myoblasts; also recorded: significantly increased”. In addition, in assay [1] (setting [10]), the “PPARA and PPARD mRNA expression (qRT-PCR)” value is listed as “not PPARA nor PPARD”; the “PPARG mRNA expression (qRT-PCR)” value is “significantly increase PPARG mRNA expression”; the “Pax7, MyoD, MyoG, Myh3 mRNA expression (qRT-PCR)” value was “significantly increased”. Moreover, the “PPARA, PPARD, PPARG, H3K9ac, PAX7, MyoD, MyoG and Myh3 protein expression (Western blot)” value in assay [1] (non-injured and injured region of TA muscle, 6 days post-cryoinjury) was “can increase; also recorded: significantly increased all myogenesis markers”. Moreover, in assay [2] (TA muscle), the “relative changes in the % fibrotic area (Masson trichrome staining)” value (“relative changes in the % fibrotic area” for short) is listed as “partially reverse the aged muscle fibrosis; also recorded: significant reversal of aging-induced fibrosis”; the “relative changes in the percentage fraction of fibrotic precursors (PGDFRA-positive and Ki67-positive)” value is “partially suppress the aged muscle fibrotic precursors”. Moreover, in assay [2] (heart tissue), the “relative changes in the % fibrotic area” value is listed as “partially reverse the aged cardiac fibrosis”; the “relative changes in the percentage fraction of fibrotic precursors (PGDFRA-positive and Ki67-positive)” value is recorded as “partially suppress the aged cardiac fibrotic precursors”. For the same compound, in assay [2] (liver tissue), the “relative changes in the % fibrotic area” value is recorded as “partially reverse the aged liver fibrosis”; the “relative changes in the percentage fraction of fibrotic precursors (PGDFRA-positive and Ki67-positive)” value is “partially suppress the aged liver fibrotic precursors”. Besides, the “aging-induced fibrosis (fibrotic area) in multiple non-skeletal muscle tissues” value in assay [2] (liver, skin and heart, 2-year-old mice) is listed as “significant reversal of aging-induced fibrosis”. Moreover, in assay [2] (skin tissue), the “relative changes in the % fibrotic area” value is listed as “partially reverse the aged skin fibrosis”; the “relative changes in the percentage fraction of fibrotic precursors (PGDFRA-positive and Ki67-positive)” value is recorded as “partially suppress the aged skin fibrotic precursors”. In assay [3] (with or without HGF), the “percentage fraction of proliferative muscle stem cells (Pax7-positive Ki67-positive cells)” value was “significantly increased” and the “percentage fraction of proliferative myoblasts (MyoD-positive Ki67-positive cells)” value is recorded as “significantly decreased”. The “fraction of proliferative muscle stem cells (Pax7-positive Ki67-positive cells)” value in assay [3] (without injury) is given as “significantly increased”. Also, in assay [4] (setting [11]), the “mRNA markers of myoblasts including MyoD1 and Pax3” value is recorded as “increased”; the “mRNA markers of myogenic differentiation including Myog, Myhc, Myh2, Myh3, Myh7, Myh8, Acta1” value is recorded as “sufficient to block committed myocytes from undergoing terminal differentiation; also recorded: decreased”. The “mRNA markers of myogenic differentiation including Myhc, Myh3, Myh8, and Acta1” value in assay [4] (proliferative myoblasts (24 h pre-differentiation)) is given as “sufficient to promote proliferative myoblasts to undergo differentiation; also recorded: increased”. Besides, in assay [4] (setting [12]), the “H3K9ac and MyoD protein (Western blot)” value is “increases; also recorded: followed the same pattern of regulation as PPARG”; the “PPARG protein levels (Western blot)” value is “increases PPARG protein; also recorded: stabilize and/or upregulate”. For the same compound, in assay [5] (14 days post-injury, 6-week old mice, prostaglandin at 0 h, rosiglitazone at 24 h post-injury), the grip strength entry is listed as “partially restore grip strength”. Moreover, in assay [5] (TA muscle 6.5 days post-injury, prostaglandin at day 0, rosiglitazone at day 1), the “hypertrophic growth (myofiber cross-sectional Feret diameters)” value is listed as “increase hypertrophic growth”. Further, the “regenerative index (fraction of nuclei in embryonic MHC-positive myofibers)” value in assay [5] (TA muscle 6.5 days post-injury, single bolus, combinations: prostaglandin at day 0, rosiglitazone at day 1, relative to DMSO vehicle) is reported as “significantly increase muscle regeneration; also recorded: significantly promoted muscle regeneration”. Moreover, the “optimal PGI2 concentration for muscle regeneration (regenerative index saturated and peaked)” value in assay [5] (titration of single bolus, TA muscle 6.5 days post-injury) was 6.5 to 13 mM. In assay [6] (early passage primary human myoblasts (passage 12)), the proliferation entry is reported as “significantly increased proliferation; also recorded: significantly increase the proliferation rate”. Also, the proliferation result in assay [6] (late passage primary human myoblasts (passage 18)) is “significantly increased proliferation; also recorded: significantly increase the proliferation rate”.

For the compound `CCOC(=O)[C@@]1(CCCCCCOc2ccc(Cl)cc2)CO1` [etomoxir], the O2 consumption rates entry in assay [7] is given as “decrease O2 consumption rates”. The “MHC and MYOG protein phenotype (Western blot)” value in assay [8] (0-24 h mitochondrial FAO inhibition) is recorded as “MHC^low; MYOG^low”; in assay [8] (24 h-48 h mitochondrial FAO inhibition), “MHC^low; MYOG^high”; in assay [8] (48 h-72 h mitochondrial FAO inhibition), “MHC^high; MYOG^low”; in assay [8] (72 h-96 h mitochondrial FAO inhibition), “MHC^high; MYOG^high”. Besides, the “myocyte survival (relative cell numbers)” value in assay [8] (treatment at 0-24 h and 24-48 h of myoblast differentiation) is recorded as “severely compromised myocyte survival”.
